Assays:
[1] = test system: endothelial-dependent vasodilatation; test: ACh-induced endothelial-dependent vasodilatation under selective pharmacological blockade; parameters: species or system mice
Text: (§1) Selective pharmacological blockade of the signaling pathways responsible for endothelial-dependent vasodilatation (Vanhoutte et al., Acta Physiol (Oxf). (2017) 219:22-96) was then used to identify the mechanism responsible for the improvement observed in Adcy9^Gt/Gt mice.

[2] = test system: flow-mediated vasodilatation; test: Flow-mediated vasodilatation under pharmacological blockade; settings: Adcy9^Gt/Gt mice
Text: as §1

[3] = molecular target: T1, CETP (Homo sapiens, UniProt P11597); settings: cited from earlier work
T1 construct: endogenous in cells; host or cells: patients in Phase III clinical trials (plasma CETP)
T1 sequence (P11597 18-493): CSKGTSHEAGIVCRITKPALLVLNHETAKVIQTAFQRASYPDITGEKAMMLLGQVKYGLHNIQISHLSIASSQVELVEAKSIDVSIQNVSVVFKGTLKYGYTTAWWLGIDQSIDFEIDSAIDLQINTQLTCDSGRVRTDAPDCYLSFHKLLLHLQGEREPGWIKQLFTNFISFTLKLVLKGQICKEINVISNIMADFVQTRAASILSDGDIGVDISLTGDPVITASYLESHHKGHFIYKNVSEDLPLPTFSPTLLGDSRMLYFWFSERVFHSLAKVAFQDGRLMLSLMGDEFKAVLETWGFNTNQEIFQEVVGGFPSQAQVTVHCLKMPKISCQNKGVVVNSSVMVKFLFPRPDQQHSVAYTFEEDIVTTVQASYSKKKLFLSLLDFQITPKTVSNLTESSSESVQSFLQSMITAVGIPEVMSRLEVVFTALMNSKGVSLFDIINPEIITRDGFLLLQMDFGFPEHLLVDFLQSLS

[4] = molecular target: T1, CETP; settings: Phase III, with atorvastatin concomitantly vs atorvastatin alone, trial terminated; cited from earlier work
[5] = 600 mg dalcetrapib vs placebo, patients with recent ACS

SMILES: NC(=NCCC[C@H](N)C(=O)O)N[N+](=O)[O-] [L-NNA]
- ACh-induced vasodilatation ([1]; Adcy9^Gt/Gt mice): inhibited significantly
- ACh-induced vasodilatation ([1]; WT mice): inhibited significantly
- flow-mediated vasodilatation [2]: numerically reduced

SMILES: CCC(CC)CC1(C(=O)Nc2ccccc2SC(=O)C(C)C)CCCCC1 [dalcetrapib]
- HDL-c [3, 5]: marked increase
- cardiovascular events [3, 5]: did not show a significant reduction
- efficacy relative to statins alone ([3]; Phase III, trial halted): lack of efficacy

SMILES: Cc1ccc(Cl)c(Nc2ccccc2C(=O)O)c1Cl [meclofenamate]
- ACh-induced vasodilatation ([1]; Adcy9^Gt/Gt mice): inhibited

SMILES: CCOC(=O)N1c2ccc(C(F)(F)F)cc2[C@@H](N(Cc2cc(C(F)(F)F)cc(C(F)(F)F)c2)C(=O)OC)C[C@H]1CC [torcetrapib]
- mortality [4]: incidence of mortality

From patent US20200222406A1, “METHODS FOR TREATING OR PREVENTING CARDIOVASCULAR DISORDERS AND LOWERING RISK OF CARDIOVASCULAR EVENTS” (DALCOR PHARMA UK LTD., LEATHERHEAD, ZUG BRANCH, priority 2017, published 2020)
